In patent publication US9119821B2, “Use of methionine sulfoximine to treat acute liver failure and other diseases caused by an inflammatory cytokine response” (priority 2010, dated 2015):
Read-outs that look alike come from different tables or passages of the source.

What was measured:
[1] = tested on: CD1 mice treated with LPS/D-GalN; assay: Survival of mice with LPS/D-GalN induced acute liver failure; assay type: in vivo, mouse; details: 50 mg/kg IP three hours prior to LPS/D-GalN
Description: Six to eight week old CD1 mice are obtained from Charles River. Animals were housed in Wayne State University or University of Padova, Vallisneri Interdepartmental Complex animal quarters until the time of the experiment. Food was withdrawn the night before the day of the experiment. All experiments were approved by the Animal Investigation Committee of Wayne State University or by the Authority of the University of Padova and authorized by the Italian Ministry of Health.
Animals were divided into two groups. Group one animals consisted of both male and female mice injected with LPS and D-GalN to induce hepatic failure. Survival was monitored post LPS/D-GalN administration and the time of injection was considered to be zero hour (t=0). Group two animals consisted of mice injected with MSO three hours prior to LPS and D-GalN administration. […] […] For analysis of the effect of MSO treatment on the cell death pathway activated by the Fas ligand, mice were pre-treated with MSO as described above, and at time zero were injected with Jo2 antibody ([…]).
(§1) Animals were monitored continuously post LPS/D-GalN or Jo2 administration. […] The time of death was recorded as hours after LPS/D-GalN injection. Fisher's exact test was used to determine two-tailed p values for the statistical between the treated and untreated groups.

[2] = tested on: CD1 mice injected with Jo2 antibody; details: mouse, in vivo
Procedure: Animals were divided into two groups. Group one animals consisted of both male and female mice injected with LPS and D-GalN to induce hepatic failure. Survival was monitored post LPS/D-GalN administration and the time of injection was considered to be zero hour (t=0). Group two animals consisted of mice injected with MSO three hours prior to LPS and D-GalN administration. […] MSO (50 mg/kg body weight, Sigma #M5379) was also prepared in saline and administered IP. For analysis of the effect of MSO treatment on the cell death pathway activated by the Fas ligand, mice were pre-treated with MSO as described above, and at time zero were injected with Jo2 antibody ([…]).
as §1

[3] = tested on: 40 different mouse cytokines
Procedure: Tissue and plasma were collected from male mice, which were divided into two groups. One group was injected with saline three hours prior to LPS/D-GalN injections. The second group was given MSO three hours prior to being injected with LPS/D-GalN. Control mice (t=0) were treated with MSO or saline for 3 hours and then euthanized (not exposed to LPS/D-GalN). After LPS/D-GalN injection at time zero, tissue and plasma samples were collected at one-hour time intervals from 1 to 5 hours.
For experiments analyzing plasma cytokines, the male mice from the groups described above were anesthetized using Avertin (solution of 15.5 mis of tert-amyl alcohol—Sigma #240486 and 25 g of 2-2-2 tribromoethanol—Sigma #T48402) and blood was collected by cardiac puncture. Plasma was obtained by transferring blood to plasma separator tubes containing lithium heparin (BD Microtainer tubes). Plasma samples were immediately frozen on dry ice and stored at −80° C.
Mouse cytokine array kits (Proteome Profiler Arrays—cat #ARY006) were obtained from R&D Systems and used according to the manufacturer's guidelines. Each array, which consisted of a nitrocellulose membrane spotted with 40 different mouse cytokines, was tested with two hundred microliters of plasma from one animal. Each condition was duplicated—two mice for each group. Control blots were from plasma collected from two untreated mice (not injected with LPS/D-GalN and/or MSO). For untreated and MSO-treated groups, plasma was collected at either 1 hour or 3 hours after LPS/D-GalN administration. The blots were developed using the Immun-Star WesternC Kit (BIO-RAD cat #170-5070) on a BIO-RAD imager. The corresponding Quantity One software of the BIO-RAD imager was used to quantify the signal obtained on the blots.

peritoneal macrophages = details: for TNF-α in culture supernatant, average ELISA value: four hours after LPS, LPS control 527
Procedure: Peritoneal macrophages were isolated from the abdomens of CD-1 mice, and 2×10^4 cells were added to each well of a 6-well cell culture plate. The cells were incubated in RPMI—1640 (with 2.05 mM glutamine) with 5% fetal calf serum and 1% penicillin/streptomycin (all solutions were from Hyclone) for 4 hours. The medium was then changed to remove any non-adherent cells, and the cells were again incubated in a 5% CO2 incubator for 16 hours. In each plate, one well was a negative control (no treatment), one well was a MSO control (9 mM) and one well was a LPS control (1 μg/ml LPS). The other three wells were treated with 9 mM MSO and 1 μg/ml LPS. One well was treated with MSO for 3 hours, and LPS was then added. In another well, LPS and MSO were added at the same time. Time of LPS addition was considered time zero. Four hours after LPS addition the cell culture medium was collected and 50 μL of the medium was mixed with 50 μl of blocking buffer and used for the TNF-α ELISA assay.
Macrophages coordinate the early phases of LPS-induced inflammatory response, through the synthesis of TNF-α and other cytokines. In vitro experiments were conducted to directly test if MSO inhibits TNF-α production on LPS-stimulated macrophages obtained from mouse peritoneum. Macrophages were triggered with LPS with or without MSO, wherein the MSO was added either three hours before, one hour after, or at the same time as LPS. Four hours after LPS addition, TNF-α in the culture supernatant was quantitated by ELISA, as described in Methods.

[4] = one hour after LPS/D-GalN, versus LPS/D-GalN alone
[5] = three hours after LPS/D-GalN, same reduction in LPS/D-GalN animals without MSO

SMILES: CS(=N)(=O)CC[C@H](N)C(=O)O (stereo partly shown) [MSO, methionine sulfoximine]
- female survival ([1]; female CD1 mice, n=14, without pretreatment 27%, p<0.005): 81%
- male survival ([1]; male CD1 mice, n=21, without pretreatment 19%, p<0.002): 71%
- effect on survival after Fas pathway induction [2]: no effect on survival
- reduction of IL-6 in plasma [3, 4]: > 50%
- reduction of TNF-α in plasma [3, 4]: > 50%
- I-TAC in plasma ([3]; three hours after LPS/D-GalN): not detected
- JE in plasma ([3]; three hours after LPS/D-GalN): either reduced or not detected
- KC values ([3]; three hours after LPS/D-GalN): same as in LPS/D-GalN animals
- M-CSF values ([3]; three hours after LPS/D-GalN): same for all three groups
- MCP-5 in plasma ([3]; three hours after LPS/D-GalN): increased
- MIG in plasma ([3]; three hours after LPS/D-GalN): not detected
- MIP-1a in plasma ([3]; three hours after LPS/D-GalN): either reduced or not detected
- MIP-1b in plasma ([3]; three hours after LPS/D-GalN): either reduced or not detected
- MIP-2 in plasma ([3]; three hours after LPS/D-GalN): increased
- RANTES in plasma ([3]; three hours after LPS/D-GalN): either reduced or not detected
- TIMP-1 values ([3]; three hours after LPS/D-GalN): reduced to approximately control values
- TNF-α induction by LPS/D-GalN ([3]; three hours after LPS/D-GalN): abrogated
- induction of IFN-γ by LPS/D-GalN ([3]; three hours after LPS/D-GalN): abolished
- induction of IL-1ra by LPS/D-GalN ([3]; three hours after LPS/D-GalN): abolished
- induction of IL-6 by LPS/D-GalN ([3]; three hours after LPS/D-GalN): abolished
- induction of IL-16 by LPS/D-GalN ([3]; three hours after LPS/D-GalN): abolished
- induction of IL-23 by LPS/D-GalN ([3]; three hours after LPS/D-GalN): abolished
- reduction of IL-1a level ([3]; three hours after LPS/D-GalN): more than 50%
- reduction of IP-10 ([3]; three hours after LPS/D-GalN): more than 50%
- number of elevated cytokines reduced by pretreatment ([3]; three hours after LPS/D-GalN, 22 of the 40 cytokines elevated): 20
- reduction in C5a [3, 5]: 10-20%
- reduction in sICAM [3, 5]: 10-20%
- TNF-α in culture supernatant, average ELISA value (peritoneal macrophages; 9 mM MSO added at the same time as LPS (1 μg/ml)): 442 pg/50 μL
- TNF-α in culture supernatant, average ELISA value (peritoneal macrophages; 9 mM MSO added one hour after LPS (1 μg/ml)): 430 pg/50 μL
- TNF-α in culture supernatant, average ELISA value (peritoneal macrophages; 9 mM MSO added three hours before LPS (1 μg/ml), 2 mM glutamine): 393 pg/50 μL
- average reductions in TNF-α (peritoneal macrophages; 9 mM MSO, depending upon the time of addition): 16-25%
